From ChEMBL document CHEMBL5506019 (J Med Chem, 2024)
Active and inactive are the calls of the source. No cut-off for these calls is given here.

Assays:
Type in all cases: functional, cell-based
[1] = molecular target: T1, 5-hydroxytryptamine receptor 2A (Homo sapiens, UniProt P28223); assay: Agonist activity at human 5-HT2AR expressed in HEK293 cells upto 50 uM incubated upto 90 sec by Fluo-4 AM dye based Ca2+ imaging assay
[2] = molecular target: T2, 5-hydroxytryptamine receptor 2C (Homo sapiens) (UniProt P28335); assay: Agonist activity at human 5-HT2CR expressed in HEK293 cells upto 50 uM incubated upto 90 sec by Fluo-4 AM dye based Ca2+ imaging assay
T2 sequence (whole entry): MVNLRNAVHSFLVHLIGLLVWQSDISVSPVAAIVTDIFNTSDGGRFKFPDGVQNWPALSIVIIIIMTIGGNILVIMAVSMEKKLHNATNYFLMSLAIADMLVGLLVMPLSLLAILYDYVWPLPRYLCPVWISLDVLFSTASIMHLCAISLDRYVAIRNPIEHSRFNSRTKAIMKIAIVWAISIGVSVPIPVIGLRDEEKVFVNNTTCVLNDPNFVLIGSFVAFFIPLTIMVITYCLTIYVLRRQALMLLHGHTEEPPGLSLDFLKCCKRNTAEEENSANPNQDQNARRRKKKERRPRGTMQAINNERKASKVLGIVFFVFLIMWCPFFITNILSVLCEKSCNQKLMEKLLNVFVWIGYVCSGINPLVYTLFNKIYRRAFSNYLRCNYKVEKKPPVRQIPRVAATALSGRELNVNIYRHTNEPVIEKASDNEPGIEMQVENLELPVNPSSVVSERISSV

[3] = molecular target: T1, 5-hydroxytryptamine receptor 2A; assay: Agonist activity at human 5-HT2AR expressed in HEK293 cells incubated upto 90 sec by Fluo-4 AM dye based Ca2+ imaging assay
[4] = molecular target: T1, 5-hydroxytryptamine receptor 2A; assay: Agonist activity at human 5-HT2AR expressed in HEK293 cells assessed as maximal response incubated upto 90 sec by Fluo-4 AM dye based Ca2+ imaging assay relative to 5-HT; details: filed as agonist

T1 sequence (P28223 whole entry): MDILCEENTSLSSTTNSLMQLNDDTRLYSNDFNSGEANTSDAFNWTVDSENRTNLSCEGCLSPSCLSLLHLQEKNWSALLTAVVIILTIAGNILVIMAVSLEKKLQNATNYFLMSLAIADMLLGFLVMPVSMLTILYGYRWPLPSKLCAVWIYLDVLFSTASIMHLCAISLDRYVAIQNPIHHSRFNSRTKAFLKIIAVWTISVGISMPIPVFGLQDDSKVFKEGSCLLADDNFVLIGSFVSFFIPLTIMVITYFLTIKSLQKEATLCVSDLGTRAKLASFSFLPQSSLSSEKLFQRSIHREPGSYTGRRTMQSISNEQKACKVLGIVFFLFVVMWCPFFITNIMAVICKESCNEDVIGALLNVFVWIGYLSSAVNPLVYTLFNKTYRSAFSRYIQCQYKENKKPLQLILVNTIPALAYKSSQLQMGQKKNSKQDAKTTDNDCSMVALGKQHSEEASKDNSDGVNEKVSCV

Row | SMILES | Activity [1] | Activity [2] | EC50 [3] | Rmax [4]
1 | CCN1CCC[C@H](c2cc(OC)c(C(F)(F)F)cc2OC)C1 | inactive | inactive | – | –
2 | FC(F)(F)c1ccc(C2CCCNC2)cc1 (racemic) | inactive | inactive | – | –
3 | CCOc1cc(C(F)(F)F)c(OCC)cc1C1CCCNC1 (stereo in doubt; 26(eu)) | – | inactive | – | –
4 | CCN1CCC[C@@H](c2cc(OC)c(C(F)(F)F)cc2OC)C1 | – | inactive | – | –
5 | COc1cc(C2CCCNC2)ccc1C(F)(F)F (configuration not stated) | – | inactive | – | –
6 | COc1ccc(OC)c(C2CCCNC2)c1 (racemic) | inactive | inactive | – | –
7 | CCOc1cc(C(F)(F)F)c(OCC)cc1C1CCCNC1 (stereo in doubt) | – | inactive | – | –
8 | COc1cc(CCN)c(OC)cc1Br | – | – | 1.6 nM | 68%
